Patent EP0942906B1, “COMPOUNDS USEFUL FOR INHIBITION OF FARNESYL PROTEIN TRANSFERASE” (SCHERING CORPORATION, priority 1996, dated 1998)
Read-outs that look alike come from different tables or passages of the source.

Tests used:
Conditions in all cases: range stated for the listed group of compounds
COS Cell = COS Cell IC50 (Cell-Based Assay, procedure of WO 95/10516)
Description: (§1) FPT IC50 (inhibition of farnesyl protein transferase, in vitro enzyme assay) and COS Cell IC50 (Cell-Based Assay) were determined following the assay procedures described in WO 95/10516, published April 20, 1995. GGPT IC50 (inhibition of geranylgeranyl protein transferase, in vitro enzyme assay), Cell Mat Assay, and anti-tumor activity (in vivo anti-tumor studies) could be determined by the assay procedures described in WO 95/10516.

Human tumor cells = assay: Soft Agar Assay (anchorage-independent growth, colony count after MTT staining); type: cell-based
Description: Anchorage-independent growth is a characteristic of tumorigenic cell lines. Human tumor cells are suspended in growth medium containing 0.3% agarose and an indicated concentration of a farnesyl transferase inhibitor. The solution is overlayed onto growth medium solidified with 0.6% agarose containing the same concentration of farnesyl transferase inhibitor as the top layer. After the top layer is solidified, plates are incubated for 10-16 days at 37°C under 5% CO2 to allow colony outgrowth. After incubation, the colonies are stained by overlaying the agar with a solution of MTT (3-[4,5-dimethylthiazol-2-yl]-2.5-diphenyltetrazolium bromide, Thiazolyl blue) (1 mg/mL in PBS). Colonies can be counted and the IC50's can be determined.

[1] = target: farnesyl protein transferase (Homo sapiens, UniProt P49354+P49356); assay: FPT IC50, inhibition of farnesyl protein transferase, in vitro enzyme assay (procedure of WO 95/10516); type: biochemical
Description: as §1

[2] = H-ras, read-out: FPT IC50 (H-ras)
[3] = k-ras, read-out: FPT IC50 (k-ras)
[4] = ras form not stated, read-out: FPT IC50

farnesyl protein transferase, sequence (P49356 whole entry, one chain of several): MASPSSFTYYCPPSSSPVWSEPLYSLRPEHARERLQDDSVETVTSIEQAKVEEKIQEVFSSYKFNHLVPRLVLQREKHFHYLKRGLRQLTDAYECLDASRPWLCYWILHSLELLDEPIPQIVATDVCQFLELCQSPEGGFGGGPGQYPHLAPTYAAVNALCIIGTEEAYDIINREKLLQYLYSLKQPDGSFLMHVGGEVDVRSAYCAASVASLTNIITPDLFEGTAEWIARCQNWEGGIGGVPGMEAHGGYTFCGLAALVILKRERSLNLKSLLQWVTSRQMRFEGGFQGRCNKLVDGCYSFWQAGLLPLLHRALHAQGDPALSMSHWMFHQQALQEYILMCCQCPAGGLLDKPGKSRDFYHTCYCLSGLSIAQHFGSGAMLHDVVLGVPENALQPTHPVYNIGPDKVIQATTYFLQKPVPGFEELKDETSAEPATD

Row | IC50 (Human tumor cells) [nM] | IC50 [1, 3] [nM] | IC50 [1, 4] [nM] | Structure (SMILES) | IC50 (COS Cell; read-out: Cos Cell IC50) [nM] | IC50 [1, 2] [nM] | IC50 (COS Cell; read-out: Cos Cell) [nM]
1 | ≥ 19.5 | 14.5 to 71.2 | – | CN(C)CC(=O)N1CCC(CC(=O)N2CCC(C3c4ncc(Br)cc4CCc4cc(Cl)cc(Br)c43)CC2)CC1 (single isomer, unassigned; (+)) [Compound 12.1] | 10 to 700 | 2 to 31.7 | –
2 | ≥ 19.5 | 14.5 to 71.2 | – | CN(C)CCC(=O)N1CCC(CC(=O)N2CCC(C3c4ncc(Br)cc4CCc4cc(Cl)cc(Br)c43)CC2)CC1 (single isomer, unassigned; (+)) [Compound 12.3] | 10 to 700 | 2 to 31.7 | –
3 | – | 14.5 to 71.2 | – | N[C@@H](Cc1ccccc1)C(=O)N1CCC(CC(=O)N2CCC([C@H]3c4ncc(Br)cc4CCc4cc(Cl)cc(Br)c43)CC2)CC1 [Compound 8.0] | 10 to 700 | 2 to 31.7 | –
4 | ≥ 19.5 | 14.5 to 71.2 | 0.7 to 18 | Cc1nccn1CC(=O)N1CCC(CC(=O)N2CCC([C@H]3c4ncc(Br)cc4CCc4cc(Cl)cc(Br)c43)CC2)CC1 [Compound 10.0-B] | – | – | ≥ 9
5 | ≥ 19.5 | 14.5 to 71.2 | – | O=C(CC1CCN(C(=O)[C@@H]2CCCN2)CC1)N1CCC([C@H]2c3ncc(Br)cc3CCc3cc(Cl)cc(Br)c32)CC1 [Compound 10.0] | 10 to 700 | 2 to 31.7 | –
6 | ≥ 19.5 | 14.5 to 71.2 | 0.7 to 18 | O=C(CC1CCN(C(=O)Cn2cnc3ccccc32)CC1)N1CCC([C@H]2c3ncc(Br)cc3CCc3cc(Cl)cc(Br)c32)CC1 [Compound 12.0-B] | – | – | ≥ 9
7 | ≥ 19.5 | 14.5 to 71.2 | 0.7 to 18 | O=C(CC1CCN(C(=O)Cn2cnc3cccnc32)CC1)N1CCC([C@H]2c3ncc(Br)cc3CCc3cc(Cl)cc(Br)c32)CC1 [Compound 13.0-B] | – | – | ≥ 9
8 | ≥ 19.5 | – | – | COC(=O)CCC(=O)N1CCC(CC(=O)N2CCC(C3c4ncc(Br)cc4CCc4cc(Cl)cc(Br)c43)CC2)CC1 (centres unmarked) [Compound 15.2] | 10 to 700 | 2 to 31.7 | –
9 | ≥ 19.5 | – | 0.7 to 18 | CCOC(=O)C[C@@H](CC(=O)N1CCC(CC(=O)N2CCC([C@H]3c4ncc(Br)cc4CCc4cc(Cl)cc(Br)c43)CC2)CC1)OC(C)=O [Compound 16.0-B] | – | – | ≥ 9
10 | ≥ 19.5 | – | – | NCC(=O)N1CCC(CC(=O)N2CCC([C@H]3c4ncc(Br)cc4CCc4cc(Cl)cc(Br)c43)CC2)CC1 [Compound 16.0] | – | – | ≥ 9
11 | – | – | 0.7 to 18 | O=C(CC1CCN(C(=O)Cn2cnc(-c3ccccc3)c2)CC1)N1CCC([C@H]2c3ncc(Br)cc3CCc3cc(Cl)cc(Br)c32)CC1 [Compound 20.0-B] | – | – | –
12 | ≥ 19.5 | – | 0.7 to 18 | O=C(CON=Cc1cc[n+]([O-])cc1)N1CCC(CC(=O)N2CCC(C3c4ncc(Br)cc4CCc4cc(Cl)cc(Br)c43)CC2)CC1 (centres unmarked) [Compound 22.0-B] | – | – | ≥ 9
13 | ≥ 19.5 | – | 0.7 to 18 | CC(C)=NOCCC(=O)N1CCC(CC(=O)N2CCC([C@H]3c4ncc(Br)cc4CCc4cc(Cl)cc(Br)c43)CC2)CC1 [Compound 23.0-B] | – | 2 to 31.7 | ≥ 9
14 | ≥ 19.5 | – | 0.7 to 18 | CC(C)(C)OC(=O)N1C[C@H](O)C[C@H]1C(=O)N1CCC(CC(=O)N2CCC([C@H]3c4ncc(Br)cc4CCc4cc(Cl)cc(Br)c43)CC2)CC1 [Compound 24.0-B] | – | – | ≥ 9
15 | – | – | 0.7 to 18 | COC(NC(=O)CC(=O)N1CCC(CC(=O)N2CCC([C@H]3c4ncc(Br)cc4CCc4cc(Cl)cc(Br)c43)CC2)CC1)C(C)C (some centres unmarked) [Compound 51.0-B] | – | – | ≥ 9
16 | – | – | 0.7 to 18 | CCOC(CC(=O)N1CCC(CC(=O)N2CCC([C@H]3c4ncc(Br)cc4CCc4cc(Cl)cc(Br)c43)CC2)CC1)OCC [Compound 76.0-B] | – | – | –
17 | – | – | 0.7 to 18 | CC(C)(C)OC(=O)NCCC(=O)N1CCC(CC(=O)N2CCC([C@H]3c4ncc(Br)cc4CCc4cc(Cl)cc(Br)c43)CC2)CC1 [Compound 86.0-B] | – | – | –
18 | – | – | 0.7 to 18 | O=C(CC1CCN(C(=O)CC2CCCCO2)CC1)N1CCC([C@H]2c3ncc(Br)cc3CCc3cc(Cl)cc(Br)c32)CC1 (some centres unmarked) [Compound 114.3-B] | – | – | ≥ 9

More lines, now with the values behind:

Row | Structure (SMILES) | IC50 (Human tumor cells) [nM] | IC50 [1, 3] [nM] | IC50 [1, 4] [nM] | IC50 (COS Cell; read-out: Cos Cell IC50) [nM] | IC50 [1, 2] [nM] | IC50 (COS Cell; read-out: Cos Cell) [nM]
19 | O=C(CC1CCN(C(=O)CN2CCS(=O)(=O)CC2)CC1)N1CCC(C2c3ncc(Br)cc3CCc3cc(Cl)cc(Br)c32)CC1 (single isomer, unassigned; (+)) [Compound 14.1] | – | – | – | 10 to 700 | 2 to 31.7 | –
20 | O=C(CCN1CCCCC1)N1CCC(CC(=O)N2CCC(C3c4ncc(Br)cc4CCc4cc(Cl)cc(Br)c43)CC2)CC1 (single isomer, unassigned; (+)) [Compound 14.2] | – | – | – | 10 to 700 | 2 to 31.7 | –
21 | CC(C)(C)OC(=O)NCC(=O)N1CCC(CC(=O)N2CCC([C@H]3c4ncc(Br)cc4CCc4cc(Cl)cc(Br)c43)CC2)CC1 [Compound 2.0] | – | 14.5 to 71.2 | – | – | 2 to 31.7 | –
22 | C[C@H](NC(=O)OC(C)(C)C)C(=O)N1CCC(CC(=O)N2CCC([C@H]3c4ncc(Br)cc4CCc4cc(Cl)cc(Br)c43)CC2)CC1 [Compound 3.0] | – | 14.5 to 71.2 | – | – | 2 to 31.7 | –
23 | C[C@@H](NC(=O)OC(C)(C)C)C(=O)N1CCC(CC(=O)N2CCC([C@H]3c4ncc(Br)cc4CCc4cc(Cl)cc(Br)c43)CC2)CC1 [Compound 4.0] | – | 14.5 to 71.2 | – | – | 2 to 31.7 | –
24 | CC(C)(C)OC(=O)N[C@@H](Cc1ccccc1)C(=O)N1CCC(CC(=O)N2CCC([C@H]3c4ncc(Br)cc4CCc4cc(Cl)cc(Br)c43)CC2)CC1 [Compound 5.0] | – | – | – | – | 2 to 31.7 | –
25 | O=C(CC1CCN(C(=O)CN2CCS(=O)(=O)CC2)CC1)N1CCC([C@H]2c3ncc(Br)cc3CCc3cc(Cl)cc(Br)c32)CC1 [Compound 6.0-B] | ≥ 19.5 | 14.5 to 71.2 | 0.7 to 18 | – | – | ≥ 9
26 | CC(C)(C)OC(=O)N[C@@H](Cc1c[nH]cn1)C(=O)N1CCC(CC(=O)N2CCC([C@H]3c4ncc(Br)cc4CCc4cc(Cl)cc(Br)c43)CC2)CC1 [Compound 6.0] | – | 14.5 to 71.2 | – | 10 to 700 | 2 to 31.7 | ≥ 9
27 | O=C(CCN1CCCCC1)N1CCC(CC(=O)N2CCC([C@H]3c4ncc(Br)cc4CCc4cc(Cl)cc(Br)c43)CC2)CC1 [Compound 7.0-B] | – | 14.5 to 71.2 | 0.7 to 18 | – | – | ≥ 9
28 | CC(C)(C)OC(=O)N1CCC[C@H]1C(=O)N1CCC(CC(=O)N2CCC([C@H]3c4ncc(Br)cc4CCc4cc(Cl)cc(Br)c43)CC2)CC1 [Compound 7.0] | – | 14.5 to 71.2 | – | 10 to 700 | 2 to 31.7 | –
29 | CCOC(=O)CC(=O)N1CCC(CC(=O)N2CCC([C@H]3c4ncc(Br)cc4CCc4cc(Cl)cc(Br)c43)CC2)CC1 [Compound 8.0-B] | – | – | 0.7 to 18 | – | – | –
30 | CC(C)=NOCC(=O)N1CCC(CC(=O)N2CCC([C@H]3c4ncc(Br)cc4CCc4cc(Cl)cc(Br)c43)CC2)CC1 [Compound 9.0-B] | ≥ 19.5 | 14.5 to 71.2 | 0.7 to 18 | – | – | ≥ 9
31 | N[C@@H](Cc1c[nH]cn1)C(=O)N1CCC(CC(=O)N2CCC([C@H]3c4ncc(Br)cc4CCc4cc(Cl)cc(Br)c43)CC2)CC1 [Compound 9.0] | – | 14.5 to 71.2 | – | – | 2 to 31.7 | –
32 | CS(=O)(=O)NCC(=O)N1CCC(CC(=O)N2CCC([C@H]3c4ncc(Br)cc4CCc4cc(Cl)cc(Br)c43)CC2)CC1 [Compound 11.0] | – | – | – | 10 to 700 | 2 to 31.7 | –
33 | O=C(NCC(=O)N1CCC(CC(=O)N2CCC([C@H]3c4ncc(Br)cc4CCc4cc(Cl)cc(Br)c43)CC2)CC1)c1ccccc1 [Compound 12.0] | – | – | – | 10 to 700 | 2 to 31.7 | –
34 | CN(C)CCCC(=O)N1CCC(CC(=O)N2CCC([C@H]3c4ncc(Br)cc4CCc4cc(Cl)cc(Br)c43)CC2)CC1 [Compound 12.2] | – | – | – | – | 2 to 31.7 | –
35 | O=C(CC1CCN(C(=O)CN2CCOCC2)CC1)N1CCC([C@H]2c3ncc(Br)cc3CCc3cc(Cl)cc(Br)c32)CC1 [Compound 13.0] | – | – | – | 10 to 700 | 2 to 31.7 | –
36 | O=C(O)CC(=O)N1CCC(CC(=O)N2CCC([C@H]3c4ncc(Br)cc4CCc4cc(Cl)cc(Br)c43)CC2)CC1 [Compound 14.0-B] | ≥ 19.5 | – | 0.7 to 18 | – | – | ≥ 9
37 | COC(=O)CCCC(=O)N1CCC(CC(=O)N2CCC(C3c4ncc(Br)cc4CCc4cc(Cl)cc(Br)c43)CC2)CC1 (centres unmarked) [Compound 15.1] | – | – | – | 10 to 700 | 2 to 31.7 | –
38 | CCOC(=O)CC(=O)N1CCC(CC(=O)N2CCC(C3c4ncc(Br)cc4CCc4cc(Cl)cc(Br)c43)CC2)CC1 (centres unmarked) [Compound 15.3] | – | – | – | 10 to 700 | 2 to 31.7 | –
39 | O=C(O)CCC(=O)N1CCC(CC(=O)N2CCC([C@H]3c4ncc(Br)cc4CCc4cc(Cl)cc(Br)c43)CC2)CC1 [Compound 18.0-B] | ≥ 19.5 | 14.5 to 71.2 | 0.7 to 18 | – | 2 to 31.7 | ≥ 9
40 | O=C(O)CCCC(=O)N1CCC(CC(=O)N2CCC([C@H]3c4ncc(Br)cc4CCc4cc(Cl)cc(Br)c43)CC2)CC1 [Compound 19.0-B] | ≥ 19.5 | – | 0.7 to 18 | – | – | ≥ 9
41 | NCCCC(=O)N1CCC(CC(=O)N2CCC([C@H]3c4ncc(Br)cc4CCc4cc(Cl)cc(Br)c43)CC2)CC1 [Compound 90.0-B] | – | – | 0.7 to 18 | – | – | –
